Six compounds from patent US4273940A, “Bis-(2-benzylaminoethyl)-disulfides” (Abbott Laboratories, priority 1980, dated 1981) can be followed below.

The subject of assay [1] is carrageenin induced hind paw edema. In words: modification of the carrageenin induced hind paw edema assay (Winter et al.); anti-inflammatory activity. It counts as in vivo. The note with it: for reduction of carrageenin induced swelling (volume): after 3 hours. Background: The carrageenan paw model is a standard test of acute inflammation.
For assay [2], the system named is Type III reactions (reverse passive Arthus lesion). Kind of assay: reverse passive Arthus assay (Carter and Krause); Type III reaction. Type of assay: in vivo. The note with it: 50 mg./kg. intraperitoneal, group of four animals. As to the method: Upon intraperitoneal administration to a group of four animals at a dose of 50 mg./kg., the lesion area is inhibited an average of 49% by the compound of Example 1 and 47% by the compound of Example 5.

Assay [3] concerns human neutrophils. In words: inhibition of neutrophil locomotion (intrinsic and chemotactic), in vitro agarose test by the method of Nelson et al. It counts as cell-based. The note with it: 2 hours at 37° C., duplicate, four donors; for inhibition at 100 µM: 10^-4 molar; for inhibition at 10 µM: 10^-5 molar. The protocol:
The compounds of this invention show marked anti-inflammatory properties as intraperitoneal or oral doses of 25-200 mg./kg. and at intravenous doses of 10 mg./kg. and above. […] The current compounds also are inhibitors of chemotaxis of human neutrophils at molar concentrations of 0.00001-0.0005, causing 50-100% inhibition of intrinsic and chemotactic locomotion of the cells, as established by the method of Nelson et al. in J. Immunol. 115, 1650 (1975).
By carrying out the in vitro test of Nelson et al. referred to above, the neutrophil locomotor response modification caused by the above compounds was established. For this purpose, the compounds were dissolved in both agarose media and the media suspending the cells. The effects of the compounds were determined by comparing te chemotactic and intrinsic locomotion of the cells, both with and without the test compounds after 2 hours of incubation at 37° C. All compounds were evaluated in duplicate against the cells which were from four individual donors.

[4] abbreviates: read-out: % Inhibition of Locomotion, Chemotactic.
Where [5] appears, read: read-out: % Inhibition of Locomotion, Intrinsic.

Structures are written as SMILES. Where a name gives a salt, the structure may show the parent alone. Read-outs that look alike come from different tables or passages of the source.

What is called inhibition is the drop in the measured response relative to a control, in per cent. As to `COc1ccccc1CNCCSSCCNCc1ccccc1OC.Cl.Cl` [Example 1, bis(2-methoxybenzylaminoethyl)disulfide dihydrochloride], the “reduction of carrageenin induced swelling (volume)” value in assay [1] (25 mg./kg. intraperitoneal) is 14.6%; in assay [1] (50 mg./kg. intraperitoneal) it was 29.9%. The “inhibition of lesion area (average)” value in assay [2] turned out to be 49%. Also, the inhibition at 100 µM in assay [3] (setting [4]) and in assay [3] (setting [5]) was 100% throughout. The inhibition at 10 µM is 93% in assay [3] (setting [4]) and 94% in assay [3] (setting [5]).

On to `Oc1ccccc1CNCCSSCCNCc1ccccc1O` [Example 2, bis(2-hydroxybenzylaminoethyl)disulfide], for which the inhibition at 100 µM in assay [3] (setting [4]) and in assay [3] (setting [5]) was 100% each time.

On to `Cc1cc(C(C)(C)C)cc(CNCCSSCCNCc2cc(C(C)(C)C)cc(C)c2O)c1O` [Example 4, bis(2-hydroxy-3-methyl-5-t-butylbenzylaminoethyl)disulfide dihydrochloride], for which, in assay [3] (setting [4]), the inhibition at 100 µM amounted to 100% and the inhibition at 10 µM is 48%. Further, in assay [3] (setting [5]), the inhibition at 100 µM is 95% and the inhibition at 10 µM was found to be 50%.

Regarding `CC(C)(C)c1cc(Cl)c(O)c(CNCCSSCCNCc2cc(C(C)(C)C)cc(Cl)c2O)c1` [Example 5, bis(2-hydroxy-3-chloro-5-t-butylbenzylaminoethyl)disulfide], in assay [2], the “inhibition of lesion area (average)” value stood at 47%. In addition, in assay [3] (setting [4]), the inhibition at 100 µM amounted to 100% and the inhibition at 10 µM was determined as 46%. Further, in assay [3] (setting [5]), the inhibition at 100 µM is 85% and the inhibition at 10 µM worked out at 24%.

Take `Clc1cccc(Cl)c1CNCCSSCCNCc1c(Cl)cccc1Cl` [Example 6, bis(2,6-dichlorobenzylaminoethyl)disulfide hydrochloride]: the results for the inhibition at 100 µM in assay [3] (setting [4]) and in assay [3] (setting [5]) were 85% and 74%, respectively.

With `CC(=O)Oc1ccccc1C(=O)O` [acetylsalicylic acid, reference compound], in assay [1] (50 mg/kg., corresponding measurement (3 hours)), the “reduction of carrageenin induced swelling (volume), acetylsalicylic acid” value was determined as 15.4%.
